How the values were obtained:
[1] = system: patients with an elevated low-density lipoprotein cholesterol (LDL-C) (≧100 mg/dL or 2.59 mmol/L); assay: Study 1: randomized, double-blind, placebo-controlled 12-week study of antibody 316P on stable atorvastatin; type: in vivo, human; details: for Cholesterol, Week 12 % change from baseline, Mean / Cholesterol, Week 12 % change from baseline, Median / Cholesterol, Week 12, Mean / Cholesterol, Week 12, Median / Cholesterol, Week 12 change from baseline, Mean / Cholesterol, Week 12 change from baseline, Median / LDL Cholesterol, Week 12—% change from baseline, Mean / LDL Cholesterol, Week 12—% change from baseline, Median / Non-HDL Cholesterol, Week 12 % change from baseline, Mean / Non-HDL Cholesterol, Week 12 % change from baseline, Median / LS mean difference vs. placebo in percent change from baseline in LDL-C at 12 weeks: on stable atorvastatin
Procedure: This was a multicenter, randomized, double-blind, parallel-group, placebo-controlled, 12-week study to assess the efficacy and safety of antibody 316P in patients with an elevated low-density lipoprotein cholesterol (LDL-C) (≧100 mg/dL or 2.59 mmol/L), when treated with atorvastatin (10 mg, 20 mg, or 40 mg) at a stable dose for at least 6 weeks. The randomization was stratified by the dose of atorvastatin received prior to randomization. After the double-blind period patients were followed during an 8-week follow-up period. The primary objective of the study was to evaluate the effect of antibody 316P on LDL-C levels after 12 weeks of treatment in comparison with placebo in patients with LDL-C (≧100 mg/dL or 2.59 mmol/L) on ongoing stable atorvastatin therapy.
The following doses/dose regimens were evaluated: 50 mg, 100 mg and 150 mg every 2 weeks (E2W), 200 mg and 300 mg every 4 weeks (E4W) in comparison with placebo.
Present study comprised a total of 122 patients (20 in placebo, 19 in 50 mg E2W group, 20 in 100 mg E2W group, 20 in 150 mg E2W group, 22 in 200 mg E4W group, and 21 in 300 mg E4W group).
Inclusion criteria: • Patients (patients receiving a lipid lowering treatment other than atorvastatin/or not at stable dose of atorvastatin 10 mg, 20 mg or 40 mg for at least 6 weeks prior to screening period or drug naïve patients) with primary hypercholesterolemia likely to have low-density lipoprotein cholesterol (LDL-C)≧100 mg/dL (≧2.59 mmol/L) at the end of the run-in period on atorvastatin therapy (Week-1). • OR • Patients with primary hypercholesterolemia treated with atorvastatin at stable dose of 10 mg, 20 mg, or 40 mg for at least 6 weeks prior to screening period and likely to have LDL-C≧100 mg/dL (≧2.59 mmol/L) at the screening visit Week-1. […]

male Syrian hamster = assay: Study 4: cholesterol lowering effect of 316P alone and with atorvastatin in hamster; type: in vivo
Source text: This is an animal study on the cholesterol lowering effect of 316P, a fully human PCSK9 blocking monoclonal antibody in male Syrian hamster
The aim of this study was to investigate the effect of 316P, a human monoclonal antibody to human PCSK9, alone and in combination with statins on expression of the hepatic LDLR and the resulting effects on serum LDL-C.
The maximal effect on LDL-C (−17/−27/−60%) was seen within 7 days. PK data of 316P are in line with the dose-dependent effect on LDL-C.

[2] = system: patients with heterozygous familial hypercholesterolemia (heFH); assay: Study 6: randomized, placebo-controlled 12-week trial in heFH on statin with or without ezetimibe (interim analysis); type: in vivo, human; details: every two or four weeks
Procedure: A randomized, double-blind, multi-dose, placebo controlled, 75-patient trial in patients with heterozygous familial hypercholesterolemia (heFH). In this trial, patients must meet the World Health Organization criteria for heFH, be on a stable daly statin regimen for at least 6-weeks before entering the trial, and have serum LDL-C levels ≧100 mg/dL. Patients were permitted to be taking ezetimibe in addition to a daily statin. The primary endpoint of the study is the change in LDL cholesterol from baseline compared to placebo over the 12-week study period.
Patients treated with different doses of 316P achieved mean LDL-C reductions of approximately 30% to greater than 60% from baseline at 12-weeks compared to a 10% reduction with placebo (p<0.01), which was the primary endpoint of the study. The interim analysis was conducted when all patients completed the primary endpoint at 12-weeks.

[3] = 12 weeks, all doses/dose regimens
[4] = single s.c. injection 1/3/10 mg/kg

With “316P: fully human anti-PCSK9 antibody comprising a HCVR as shown in SEQ ID NO: 90 and LCVR as shown in SEQ ID NO: 92 [Antibody 316P]” the “Cholesterol, Week 12 % change from baseline, Mean” value ([1]; 50 mg E2W) was −24.21%, the “Cholesterol, Week 12 % change from baseline, Median” value ([1]; 50 mg E2W) was −23.34% and the “Cholesterol, Week 12, Mean” value ([1]; 50 mg E2W) was 3.974 mmol/L. The “Cholesterol, Week 12, Median” value ([1]; 50 mg E2W) was 3.937 mmol/L, the “Cholesterol, Week 12 change from baseline, Mean” value ([1]; 50 mg E2W) was -1.313 mmol/L and the “Cholesterol, Week 12 change from baseline, Median” value ([1]; 50 mg E2W) was -1.399 mmol/L. The “LDL Cholesterol, Week 12—% change from baseline, Mean” value ([1]; 50 mg E2W) was −41.06%, the “LDL Cholesterol, Week 12—% change from baseline, Median” value ([1]; 50 mg E2W) was −37.04% and the “Non-HDL Cholesterol, Week 12 % change from baseline, Mean” value ([1]; 50 mg E2W) was −35.23%. The “Non-HDL Cholesterol, Week 12 % change from baseline, Median” value ([1]; 50 mg E2W) was −36.62%, the “maintenance of LDL-C decrease observed after the first injection” value ([1]; 100 mg E2W and 150 mg E2W groups, also throughout the interval period between the injections) was “maintained throughout the study” and the “Cholesterol, Week 12 % change from baseline, Mean” value ([1]; 100 mg E2W) was −38.97%. For the same substance, the “Cholesterol, Week 12 % change from baseline, Median” value ([1]; 100 mg E2W) was −40.21%, the “Cholesterol, Week 12, Mean” value ([1]; 100 mg E2W) was 3.288 mmol/L and the “Cholesterol, Week 12, Median” value ([1]; 100 mg E2W) was 3.238 mmol/L. For the same substance, the “Cholesterol, Week 12 change from baseline, Mean” value ([1]; 100 mg E2W) was -2.098 mmol/L, the “Cholesterol, Week 12 change from baseline, Median” value ([1]; 100 mg E2W) was -2.163 mmol/L and the “LDL Cholesterol, Week 12—% change from baseline, Mean” value ([1]; 100 mg E2W) was −63.90%. For the same substance, the “LDL Cholesterol, Week 12—% change from baseline, Median” value ([1]; 100 mg E2W) was −64.28%, the “LS mean difference vs. placebo in percent change from baseline in LDL-C at 12 weeks” value ([1]; 100 mg E2W) was −58.36% and the “Non-HDL Cholesterol, Week 12 % change from baseline, Mean” value ([1]; 100 mg E2W) was −54.78%. The “Non-HDL Cholesterol, Week 12 % change from baseline, Median” value ([1]; 100 mg E2W) was −55.91%, the “number of patients with LDL-C reduction from baseline >50% at week 12” value ([1]; 150 mg E2W group, among 18 patients) was 17 and the “Cholesterol, Week 12 % change from baseline, Mean” value ([1]; 150 mg E2W) was −45.21%. For the same substance, the “Cholesterol, Week 12 % change from baseline, Median” value ([1]; 150 mg E2W) was −45.03%, the “Cholesterol, Week 12, Mean” value ([1]; 150 mg E2W) was 2.922 mmol/L and the “Cholesterol, Week 12, Median” value ([1]; 150 mg E2W) was 2.823 mmol/L. For the same substance, the “Cholesterol, Week 12 change from baseline, Mean” value ([1]; 150 mg E2W) was -2.466 mmol/L, the “Cholesterol, Week 12 change from baseline, Median” value ([1]; 150 mg E2W) was -2.331 mmol/L and the “LDL Cholesterol, Week 12—% change from baseline, Mean” value ([1]; 150 mg E2W) was −72.68%. The “LDL Cholesterol, Week 12—% change from baseline, Median” value ([1]; 150 mg E2W) was −74.83%, the “LS mean difference vs. placebo in percent change from baseline in LDL-C at 12 weeks” value ([1]; 150 mg E2W) was −68.78% and the “Non-HDL Cholesterol, Week 12 % change from baseline, Mean” value ([1]; 150 mg E2W) was −63.71%. For the same substance, the “Non-HDL Cholesterol, Week 12 % change from baseline, Median” value ([1]; 150 mg E2W) was −65.94%, the “Cholesterol, Week 12 % change from baseline, Mean” value ([1]; 200 mg E4W) was −29.54% and the “Cholesterol, Week 12 % change from baseline, Median” value ([1]; 200 mg E4W) was −29.51%. For the same substance, the “Cholesterol, Week 12, Mean” value ([1]; 200 mg E4W) was 3.709 mmol/L, the “Cholesterol, Week 12, Median” value ([1]; 200 mg E4W) was 3.587 mmol/L and the “Cholesterol, Week 12 change from baseline, Mean” value ([1]; 200 mg E4W) was -1.596 mmol/L. The “Cholesterol, Week 12 change from baseline, Median” value ([1]; 200 mg E4W) was -1.716 mmol/L, the “LDL Cholesterol, Week 12—% change from baseline, Mean” value ([1]; 200 mg E4W) was −47.23% and the “LDL Cholesterol, Week 12—% change from baseline, Median” value ([1]; 200 mg E4W) was −49.46%. The “LS mean difference vs. placebo in percent change from baseline in LDL-C at 12 weeks” value ([1]; 200 mg E4W) was −42.53%, the “Non-HDL Cholesterol, Week 12 % change from baseline, Mean” value ([1]; 200 mg E4W) was −40.07% and the “Non-HDL Cholesterol, Week 12 % change from baseline, Median” value ([1]; 200 mg E4W) was −39.91%. For the same substance, the “decrease in LDL-C during the interval periods” value ([1]; 200 mg and 300 mg E4W groups) was “at least −40%”, the “Cholesterol, Week 12 % change from baseline, Mean” value ([1]; 300 mg E4W) was −29.61% and the “Cholesterol, Week 12 % change from baseline, Median” value ([1]; 300 mg E4W) was −33.48%. For the same substance, the “Cholesterol, Week 12, Mean” value ([1]; 300 mg E4W) was 3.778 mmol/L, the “Cholesterol, Week 12, Median” value ([1]; 300 mg E4W) was 3.393 mmol/L and the “Cholesterol, Week 12 change from baseline, Mean” value ([1]; 300 mg E4W) was -1.638 mmol/L. The “Cholesterol, Week 12 change from baseline, Median” value ([1]; 300 mg E4W) was -2.020 mmol/L, the “LDL Cholesterol, Week 12—% change from baseline, Median” value ([1]; 300 mg E4W) was −51.98% and the “LS mean difference vs. placebo in percent change from baseline in LDL-C at 12 weeks” value ([1]; 300 mg E4W) was −42.26%. For the same substance, the “Non-HDL Cholesterol, Week 12 % change from baseline, Mean” value ([1]; 300 mg E4W) was −41.17%, the “Non-HDL Cholesterol, Week 12 % change from baseline, Median” value ([1]; 300 mg E4W) was −45.55% and the tolerability ([1]; 12 weeks of treatment, all tested doses/dose regimens) was “well tolerated”. The “ApoB” value [1, 3] was “decrease”, the “Total-C” value [1, 3] was “decrease” and the “non HDL-C” value [1, 3] was “decrease”. For the same substance, the “HDL-C” value ([1]; 12 weeks, all groups) was “trend of increase”, the “percent change from baseline in LDL-C at 12 weeks compared to the placebo group” value ([1]; all groups) was “Statistically significant decreases” and the troponin levels ([1]; all treatment groups) was “no change”. For the same substance, the “LDL-C mean values over 12 weeks and LOCF (FIG. 6, words)” value ([1]; all treatment groups except placebo, whole study period) was “significant and persistent reduction of LDL-C levels”, the LDLR expression (male Syrian hamster; 316P on top of Atorvastatin) was “increased LDLR expression” and the “serum LDL-C” value (male Syrian hamster; 316P on top of Atorvastatin) was “decreased serum LDL-C”. The statin resistance (male Syrian hamster; 316P on top of Atorvastatin) was “could overcome the statin resistance”, the “combination treatment compared with single treatment” value (male Syrian hamster; 316P plus Atorvastatin) was “more effective than single treatment with 316P alone” and the “maximal effect on LDL-C” value (male Syrian hamster; single s.c. injection 1 mg/kg) was −17%. For the same substance, the “maximal effect on LDL-C” value (male Syrian hamster; single s.c. injection 3 mg/kg) was −27%, the “maximal effect on LDL-C” value (male Syrian hamster; single s.c. injection 10 mg/kg) was −60% and the “duration of dose-dependent decrease in LDL-C” value (male Syrian hamster; [4]) was “more than 2 weeks”. The “time to maximal effect on LDL-C” value (male Syrian hamster; [4]) was at most 7 days and the “mean LDL-C reductions at 12-weeks compared to placebo” value [2] was “significantly greater mean LDL-C reductions”.

— patent US9682013B2, “Pharmaceutical compositions comprising human antibodies to PCSK9” (SANOFI BIOTECHNOLOGY, priority 2011, dated 2017)
